These results are taken from PMC6284057, “Combined Antibacterial Effects of Goat Cathelicidins With Different Mechanisms of Action” (Frontiers in Microbiology, 2018).

In brackets after ≈: the same amount, converted by molar mass. Where two headings read alike, the source gives them in different places. Positions of bridges follow the written chain, without caps; N, C: chain ends. Non-standard residues stand in square brackets, D forms with d. Residues, ends and D or L forms follow the SMILES beside them. No end group written: not given here. *: point of attachment. X1 = CC[C@H](C)CCCCC(=O)*; Dab = NCC[C@H](N)C(=O)O

Data set [1] deals with P. mirabilis (XDR CI 3423). The data set is described as follows: microbe, parasite or virus in culture. It counts as cell-based, Proteus mirabilis. The following applies: Table S2, XDR clinical isolate; NaCl content of medium not stated; read-out: Minimum inhibitory concentration. On the procedure:
(§1) Antimicrobial assay was performed as described previously ([Panteleev et al., 2017b]). Briefly, mid-log phase bacterial test cultures were diluted with the 2× Mueller-Hinton broth (MH, Sigma) supplemented with 1.8% NaCl or without it so that to reach a final cell concentration of 10^6 CFU/ml. 50 μl aliquots of the obtained bacterial suspension were added to 50 μl of the peptide solutions serially diluted with 0.1% water solution of bovine serum albumin (BSA) in 96-well flat-bottom polystyrene microplates (Eppendorf #0030730011). After incubation at 37°C and 900 rpm for 24 h the minimum inhibitory concentrations (MIC) were determined as the lowest peptide concentrations that prevented growth of a test microorganism observed as visible turbidity. The results were expressed as the median values determined on the basis of at least three independent experiments performed in triplicate.

The subject of data set [2] is E. coli ML-35p. The data set is described as follows: Resistance induction experiment. It counts as cell-based, Escherichia coli. The following applies: after 25 passages under selection; MH broth, 0.9% NaCl. On the procedure:
(§2) Resistance induction experiments were performed using the previously described method ([Chernysh et al., 2015]) with some modifications. Briefly, on day 1, the overnight culture of wild-type bacteria was diluted with the 2× MH broth containing 1.8% NaCl so that to reach a final cell concentration of 10^6 CFU/ml. 50 μl aliquots of the obtained bacterial suspension were added to 50 μl of the peptide solutions serially diluted with 0.1% water solution of BSA in 96-well microplates (Eppendorf #0030730011). After incubation at 37°C and 900 rpm for 22 ± 2 h, MICs were determined as described above. For each subsequent daily transfer, 5 μl of the inoculum taken from the first well with a sub-inhibitory drug concentration were diluted with 1 ml of the fresh 2× MH broth supplemented with 1.8% NaCl. […] 26 repeated passages in the presence of antimicrobial agents were made for each bacterial strain during the experiment. […] Control serial passages in the absence of the agent were also performed.

Another data set relates to E. coli XDR CI 1057. The following applies: MH broth, 0.9% NaCl. How it is done:
Resistance induction experiments were performed using the previously described method ([Chernysh et al., 2015]) with some modifications. Briefly, on day 1, the overnight culture of wild-type bacteria was diluted with the 2× MH broth containing 1.8% NaCl so that to reach a final cell concentration of 10^6 CFU/ml. 50 μl aliquots of the obtained bacterial suspension were added to 50 μl of the peptide solutions serially diluted with 0.1% water solution of BSA in 96-well microplates (Eppendorf #0030730011). After incubation at 37°C and 900 rpm for 22 ± 2 h, MICs were determined as described above. For each subsequent daily transfer, 5 μl of the inoculum taken from the first well with a sub-inhibitory drug concentration were diluted with 1 ml of the fresh 2× MH broth supplemented with 1.8% NaCl. […] Control serial passages in the absence of the agent were also performed.

Data set [3] has as its system K. pneumoniae (XDR CI 1056). The data set is described as follows: microbe, parasite or virus in culture. It counts as cell-based, Klebsiella pneumoniae. The following applies: Table S2, XDR clinical isolate; NaCl content of medium not stated; read-out: Minimum inhibitory concentration. How it is done: as §1
In data set [4] the test system is E. coli XDR CI 1057 (26 days with synergy combination). The following applies: Table 4, strain after 26 days with synergy combination (selection in MH broth with 0.9% NaCl). How it is done: as §1, with “After incubation at 37°C and 900 rpm for 24 h the minimum inhibitory concentrations (MIC) were determined as the lowest peptide concentrations that prevented growth of a test microorganism observed as visible turbidity.” left out
as §2

The subject of data set [5] is E. coli XDR CI 1057 (26 days with mini-ChBac7.5Nα). On the procedure:
as §1, with “After incubation at 37°C and 900 rpm for 24 h the minimum inhibitory concentrations (MIC) were determined as the lowest peptide concentrations that prevented growth of a test microorganism observed as visible turbidity.” left out
as §2

Data set [6] relates to E. coli XDR CI 1057 (26 days without antimicrobial agent). On the procedure:
as §1, with “After incubation at 37°C and 900 rpm for 24 h the minimum inhibitory concentrations (MIC) were determined as the lowest peptide concentrations that prevented growth of a test microorganism observed as visible turbidity.” left out
as §2

For data set [7], the system named is A. baumannii (XDR CI 2675). Description: microbe, parasite or virus in culture. The class given is cell-based, Acinetobacter baumannii. The following applies: read-out: Minimum inhibitory concentration. How it is done: as §1
A further data set deals with E. coli (XDR CI 1057). Description: microbe, parasite or virus in culture. It counts as cell-based, Escherichia coli. How it is done:
as §1

The subject of data set [8] is P. aeruginosa (XDR CI 1049). Description: microbe, parasite or virus in culture. It counts as cell-based, Pseudomonas aeruginosa. The following applies: Table S2, XDR clinical isolate; NaCl content of medium not stated; read-out: Minimum inhibitory concentration. How it is done: as §1
Another data set concerns E. cloacae (XDR CI 4172). The data set is described as follows: microbe, parasite or virus in culture. The following applies: read-out: Minimum inhibitory concentration. The class given is cell-based, Enterobacter cloacae. On the procedure: as §1
Data set [9] deals with E. coli V102G mutant strain (SbmA). The arrangement: method as in Corbalan et al., 2013. The following applies: ref Corbalan et al., 2013; cited from earlier work.
Another data set has as its system K. pneumoniae (CI 287). The class given is cell-based, Klebsiella pneumoniae. The following applies: Mueller-Hinton broth, 10^6 CFU/ml, 0.1% BSA, 37°C, 24 h, median of at least 3 experiments. On the procedure:
as §1

A further data set concerns P. aeruginosa PAO1. The class given is cell-based, Pseudomonas aeruginosa. The following applies: Mueller-Hinton broth, 10^6 CFU/ml, 0.1% BSA, 37°C, 24 h, median of at least 3 experiments. On the procedure: as §1
A further data set has as its system E. coli C600. The class given is cell-based, Escherichia coli. The following applies: Mueller-Hinton broth, 10^6 CFU/ml, 0.1% BSA, 37°C, 24 h, median of at least 3 experiments. How it is done: as §1
The subject of data set [10] is E. coli ML-35p. The class given is cell-based, Escherichia coli. The following applies: Mueller-Hinton broth, 10^6 CFU/ml, 0.1% BSA, 37°C, 24 h, median of at least 3 experiments. How it is done: as §1
In data set [11] the test system is mini-ChBac7.5Nα-resistant E. coli strain. The following applies: peptide alone, before addition of ChMAP-28. On the procedure: as §1, with “After incubation at 37°C and 900 rpm for 24 h the minimum inhibitory concentrations (MIC) were determined as the lowest peptide concentrations that prevented growth of a test microorganism observed as visible turbidity.” left out
as §2

The next data set deals with M. luteus B-1314. It counts as cell-based, Micrococcus luteus. The following applies: Mueller-Hinton broth, 10^6 CFU/ml, peptide diluted in 0.1% BSA, 37°C, 24 h, median of at least 3 experiments in triplicate. On the procedure:
as §1

In data set [12] the test system is mammalian cell lines (HEK293T, HEF). Description: Cytotoxicity (MTT assay). The class given is cell-based, human. The following applies: HEK293T and HEF, 24 h incubation. How it is done: Hemolytic activity of the peptides was tested against the fresh suspension of human red blood cells (hRBC) using the hemoglobin release assay as described previously ([Panteleev et al., 2016]). Three experiments were performed with the hRBC from blood samples obtained from independent donors. The obtained data were represented as average means with standard deviations. The cytotoxicity of the peptides against HEK293T (transformed human embryonic kidney cells) and HEF (human embryonic fibroblasts) cell lines was studied using the colorimetric 3-(4,5-dimethylthiazol-2-yl)-2,5-diphenyltetrazolium bromide (MTT) dye reduction assay according to ([Panteleev and Ovchinnikova, 2017]). Three independent experiments were performed for each peptide. Half maximal inhibitory concentration (IC50) values were estimated as described previously ([Kuzmin et al., 2018]).
(In general: Formazan colour is commonly taken as a measure of viable cells.)

The subject of a further data set is S. aureus 209P. It counts as cell-based, Staphylococcus aureus. The following applies: Mueller-Hinton broth, 10^6 CFU/ml, 0.1% BSA, 37°C, 24 h, median of at least 3 experiments. On the procedure:
as §1

The subject of the next data set is S. aureus ATCC 29213. The class given is cell-based, Staphylococcus aureus. The following applies: Mueller-Hinton broth, 10^6 CFU/ml, 0.1% BSA, 37°C, 24 h, median of at least 3 experiments.
The test system of another data set is E. faecalis ATCC 29212. The class given is cell-based, Enterococcus faecalis. The following applies: Mueller-Hinton broth, 10^6 CFU/ml, 0.1% BSA, 37°C, 24 h, median of at least 3 experiments.
In another data set the test system is B. subtilis B-886. The class given is cell-based, Bacillus subtilis. The following applies: Mueller-Hinton broth, 10^6 CFU/ml, 0.1% BSA, 37°C, 24 h, median of at least 3 experiments. How it is done:
as §1

[13] abbreviates: Table S2, XDR clinical isolate, NaCl content of medium not stated.
The mark [14] stands for this setting: 0.9% NaCl, Mueller-Hinton broth, 10^6 CFU/ml, 0.1% BSA, 37°C, 24 h, median of at least 3 experiments.
Where [15] appears, read: Without NaCl, Mueller-Hinton broth, 10^6 CFU/ml, 0.1% BSA, 37°C, 24 h, median of at least 3 experiments.

Protocol for E. faecalis ATCC 29212: (§3) Briefly, mid-log phase bacterial test cultures were diluted with the 2× Mueller-Hinton broth (MH, Sigma) supplemented with 1.8% NaCl or without it so that to reach a final cell concentration of 10^6 CFU/ml. 50 μl aliquots of the obtained bacterial suspension were added to 50 μl of the peptide solutions serially diluted with 0.1% water solution of bovine serum albumin (BSA) in 96-well flat-bottom polystyrene microplates (Eppendorf #0030730011). […] The results were expressed as the median values determined on the basis of at least three independent experiments performed in triplicate.
Protocol for S. aureus ATCC 29213: as §3

As for `CC[C@H](C)CCCCC(=O)N[C@@H](CCN)C(=O)N[C@H](C(=O)N[C@@H](CCN)C(=O)N[C@H]1CCNC(=O)[C@H]([C@@H](C)O)NC(=O)[C@H](CCN)NC(=O)[C@H](CCN)NC(=O)[C@H](CC(C)C)NC(=O)[C@@H](Cc2ccccc2)NC(=O)[C@H](CCN)NC1=O)[C@@H](C)O` [Polymyxin B, reference compound] (X1-[Dab]T[Dab][Dab][Dab][dF]L[Dab][Dab]T; lactam 4-C (inferred); N-terminus assumed), the MIC in data set [1] was above 128 µM; in data set [3] it was 0.25 µM (≈ 0.301 µg/mL); in [7] (setting [13]), 0.125 µM (≈ 0.15 µg/mL); in [8], 2 µM (≈ 2.41 µg/mL); in the data set with E. cloacae (XDR CI 4172) (setting [13]) it was 4 µM (≈ 4.81 µg/mL). The results for the “increase in MIC value” in the data set with E. coli ML-35p [2] and in the data set with E. coli XDR CI 1057 (after 25 passages under selection) were 128 fold and 2048 fold, respectively. In the data set with E. coli XDR CI 1057 (selection by polymyxin B), the “MIC value after resistance development” value was above 256 µM. Besides, the Minimum inhibitory concentration in data set [4] came to 0.06 µM; in [5] (Table 4, strain after 26 days with mini-ChBac7.5Nα (selection in MH broth with 0.9% NaCl)) it was 0.125 µM (≈ 0.15 µg/mL); in data set [6] (Table 4, strain after 26 days without antimicrobial agent (selection in MH broth with 0.9% NaCl)), 0.125 µM (≈ 0.15 µg/mL); with E. coli (XDR CI 1057) (Table 4, strain at 0 days of selection experiment (selection in MH broth with 0.9% NaCl)), 0.125 µM (≈ 0.15 µg/mL); in the data set on E. coli (XDR CI 1057) (setting [13]), 0.125 µM (≈ 0.15 µg/mL).
Take “Bac7(1–16): minimal active fragment of the bovine 60-residue Pro-rich peptide Bac7 (RRIRPRPPRLPRPRPR; Bactenecin 7; UniProt P19661 131-146, looked up, fragment)”: the MIC in data set [9] is 156 µM.
On to “RRLRPRRPRLPRPRPR [mini-ChBac7.5Nα(1–16)]”, for which the Minimum inhibitory concentration in the data set with K. pneumoniae (CI 287) (0.9% NaCl) is above 32 µM; in the data set on K. pneumoniae (CI 287) (Without NaCl), 4 µM; in the data set with P. aeruginosa PAO1 (0.9% NaCl), above 32 µM; in the data set on P. aeruginosa PAO1 (Without NaCl) it was 16 µM; in the data set on E. coli C600 (0.9% NaCl) it was 16 µM; in the data set with E. coli C600 (Without NaCl), 2 µM. Further, the Minimum inhibitory concentration in the data set on E. coli ML-35p [10] (0.9% NaCl) was 8 µM; with E. coli ML-35p [10] (Without NaCl) it was 0.5 µM; in data set [5] (With 0.9% NaCl, resistant strain, 26 days with mini-ChBac7.5Nα), above 256 µM; in data set [5] (Without salt, resistant strain, 26 days with mini-ChBac7.5Nα), 16 µM; in data set [6] (With 0.9% NaCl, control strain, 26 days without antimicrobial agent), 16 µM; in [6] (Without salt, control strain, 26 days without antimicrobial agent) it was 2 µM. In addition, the Minimum inhibitory concentration with M. luteus B-1314 (0.9% NaCl) is 8 µM; in the data set on M. luteus B-1314 (Without NaCl), 1 µM; in the data set on S. aureus 209P (0.9% NaCl) it was above 32 µM; in the data set with S. aureus 209P (Without NaCl), 8 µM; in the data set on S. aureus ATCC 29213 (0.9% NaCl) it was above 32 µM; with S. aureus ATCC 29213 (Without NaCl) it was above 32 µM. The Minimum inhibitory concentration in the data set with E. faecalis ATCC 29212 (0.9% NaCl) was above 32 µM; in the data set with E. faecalis ATCC 29212 (Without NaCl), above 32 µM; in the data set with B. subtilis B-886 (0.9% NaCl), above 32 µM; with B. subtilis B-886 (Without NaCl), 1 µM. In addition, the “MIC of the individual peptide” value in data set [11] is above 256 µM. Moreover, the MIC in data set [7] (setting [14]) was above 32 µM; in data set [7] (setting [15]), 4 µM; with E. cloacae (XDR CI 4172) (setting [14]), above 32 µM; in the data set with E. cloacae (XDR CI 4172) (setting [15]) it was 1 µM. Besides, in data set [12], the “concentrations at which cytotoxic activity was shown” value is above 25 µM.
